Reference: the NIST ThermoML archive (doi:10.1016/j.jct.2008.03.007)
± gives the expanded uncertainty stated by the source.

What was measured:
[1] = 101.33 kPa, Liquid, Vibrating tube method
[2] = xn = mol fraction of the nth substance listed; details: 101 kPa, Liquid; for mass density: Vibrating tube method

`CCCCCCCC[N+](C)(CCCCCCCC)CCCCCCCC.O=S(=O)([N-]S(=O)(=O)C(F)(F)F)C(F)(F)F` gave a mass density ([1]; 298.15 K) of 1109.3 ± 6.1 kg/m3, a mass density ([1]; 303.15 K) of 1105.1 ± 6.1 kg/m3 and a mass density ([1]; 313.15 K) of 1098.3 ± 6.1 kg/m3.

Compound `CCCCCCCC[N+](C)(CCCCCCCC)CCCCCCCC.O=S(=O)([N-]S(=O)(=O)C(F)(F)F)C(F)(F)F` + CCCO has a mass density ([2]; 298.15 K, x1 = 0.0736) of 919 ± 6 kg/m3, a mass density ([2]; 298.15 K, x1 = 0.1146) of 956 ± 6 kg/m3 and a mass density ([2]; 298.15 K, x1 = 0.2152) of 1011 ± 6 kg/m3. It also gave a mass density ([2]; 298.15 K, x1 = 0.3303) of 1045 ± 6 kg/m3, a mass density ([2]; 298.15 K, x1 = 0.4033) of 1059 ± 6 kg/m3 and a mass density ([2]; 298.15 K, x1 = 0.524) of 1076 ± 6 kg/m3. It also gave a mass density ([2]; 298.15 K, x1 = 0.6882) of 1091 ± 6 kg/m3, a mass density ([2]; 298.15 K, x1 = 0.7833) of 1098 ± 6 kg/m3 and a mass density ([2]; 298.15 K, x1 = 0.8439) of 1102 ± 6 kg/m3. For the same compound, the mass density ([2]; 298.15 K, x1 = 0.9533) was 1107 ± 6 kg/m3, the speed of sound ([2]; 298.15 K, x1 = 0.0736) was 1187.7 ± 6.8 m/s and the speed of sound ([2]; 298.15 K, x1 = 0.1146) was 1178.1 ± 6.7 m/s. For the same compound, the speed of sound ([2]; 298.15 K, x1 = 0.2152) was 1154.7 ± 6.7 m/s, the speed of sound ([2]; 298.15 K, x1 = 0.3303) was 1127.9 ± 6.6 m/s and the speed of sound ([2]; 298.15 K, x1 = 0.4033) was 1110.9 ± 6.5 m/s. It also gave a speed of sound ([2]; 298.15 K, x1 = 0.524) of 1082.8 ± 6.5 m/s, a speed of sound ([2]; 298.15 K, x1 = 0.6682) of 1049.2 ± 6.4 m/s and a speed of sound ([2]; 298.15 K, x1 = 0.7833) of 1022.4 ± 6.3 m/s. It also gave a speed of sound ([2]; 298.15 K, x1 = 0.8439) of 1008.3 ± 6.3 m/s, a speed of sound ([2]; 298.15 K, x1 = 0.9533) of 982.9 ± 6.2 m/s and a mass density ([2]; 303.15 K, x1 = 0.0736) of 915 ± 6 kg/m3. The mass density ([2]; 303.15 K, x1 = 0.1146) was 952 ± 6 kg/m3, the mass density ([2]; 303.15 K, x1 = 0.2152) was 1006 ± 6 kg/m3 and the mass density ([2]; 303.15 K, x1 = 0.3303) was 1041 ± 6 kg/m3. It also gave a mass density ([2]; 303.15 K, x1 = 0.4033) of 1055 ± 6 kg/m3, a mass density ([2]; 303.15 K, x1 = 0.524) of 1072 ± 6 kg/m3 and a mass density ([2]; 303.15 K, x1 = 0.6882) of 1087 ± 6 kg/m3. The mass density ([2]; 303.15 K, x1 = 0.7833) was 1094 ± 6 kg/m3, the mass density ([2]; 303.15 K, x1 = 0.8439) was 1097 ± 6 kg/m3 and the mass density ([2]; 303.15 K, x1 = 0.9533) was 1103 ± 6 kg/m3. The mass density ([2]; 313.15 K, x1 = 0.0736) was 907 ± 6 kg/m3, the mass density ([2]; 313.15 K, x1 = 0.1146) was 944 ± 6 kg/m3 and the mass density ([2]; 313.15 K, x1 = 0.2152) was 999 ± 6 kg/m3. For the same compound, the mass density ([2]; 313.15 K, x1 = 0.3303) was 1033 ± 6 kg/m3, the mass density ([2]; 313.15 K, x1 = 0.4033) was 1047 ± 6 kg/m3 and the mass density ([2]; 313.15 K, x1 = 0.524) was 1064 ± 6 kg/m3. For the same compound, the mass density ([2]; 313.15 K, x1 = 0.6882) was 1080 ± 6 kg/m3, the mass density ([2]; 313.15 K, x1 = 0.7833) was 1087 ± 6 kg/m3 and the mass density ([2]; 313.15 K, x1 = 0.8439) was 1090 ± 6 kg/m3. For the same compound, the mass density ([2]; 313.15 K, x1 = 0.9533) was 1096 ± 6 kg/m3.

Compound `CCCCCCCC[N+](C)(CCCCCCCC)CCCCCCCC.O=S(=O)([N-]S(=O)(=O)C(F)(F)F)C(F)(F)F` + CCO has a mass density ([2]; 298.15 K, x1 = 0.0484) of 896 ± 6 kg/m3, a mass density ([2]; 298.15 K, x1 = 0.1731) of 1005 ± 6 kg/m3 and a mass density ([2]; 298.15 K, x1 = 0.2728) of 1041 ± 6 kg/m3. The mass density ([2]; 298.15 K, x1 = 0.3353) was 1055 ± 6 kg/m3, the mass density ([2]; 298.15 K, x1 = 0.4286) was 1070 ± 6 kg/m3 and the mass density ([2]; 298.15 K, x1 = 0.5145) was 1080 ± 6 kg/m3. The mass density ([2]; 298.15 K, x1 = 0.6307) was 1090 ± 6 kg/m3, the mass density ([2]; 298.15 K, x1 = 0.7338) was 1097 ± 6 kg/m3 and the mass density ([2]; 298.15 K, x1 = 0.7774) was 1099 ± 6 kg/m3. For the same compound, the mass density ([2]; 298.15 K, x1 = 0.9393) was 1107 ± 6 kg/m3, the speed of sound ([2]; 298.15 K, x1 = 0.1731) was 1116.1 ± 6.5 m/s and the speed of sound ([2]; 298.15 K, x1 = 0.2728) was 1098.8 ± 6.4 m/s. The speed of sound ([2]; 298.15 K, x1 = 0.3353) was 1087.9 ± 6.4 m/s, the speed of sound ([2]; 298.15 K, x1 = 0.4286) was 1071.6 ± 6.4 m/s and the speed of sound ([2]; 298.15 K, x1 = 0.5145) was 1056.6 ± 6.3 m/s. It also gave a speed of sound ([2]; 298.15 K, x1 = 0.6307) of 1036.4 ± 6.3 m/s, a speed of sound ([2]; 298.15 K, x1 = 0.7338) of 1018.4 ± 6.3 m/s and a speed of sound ([2]; 298.15 K, x1 = 0.7774) of 1010.8 ± 6.3 m/s. For the same compound, the speed of sound ([2]; 298.15 K, x1 = 0.9493) was 980.8 ± 6.2 m/s, the mass density ([2]; 303.15 K, x1 = 0.0484) was 896 ± 6 kg/m3 and the mass density ([2]; 303.15 K, x1 = 0.1731) was 1003 ± 6 kg/m3. The mass density ([2]; 303.15 K, x1 = 0.2728) was 1036 ± 6 kg/m3, the mass density ([2]; 303.15 K, x1 = 0.3353) was 1050 ± 6 kg/m3 and the mass density ([2]; 303.15 K, x1 = 0.4286) was 1063 ± 6 kg/m3. For the same compound, the mass density ([2]; 303.15 K, x1 = 0.5145) was 1072 ± 6 kg/m3, the mass density ([2]; 303.15 K, x1 = 0.6307) was 1082 ± 6 kg/m3 and the mass density ([2]; 303.15 K, x1 = 0.7338) was 1090 ± 6 kg/m3. It also gave a mass density ([2]; 303.15 K, x1 = 0.7774) of 1092 ± 6 kg/m3, a mass density ([2]; 303.15 K, x1 = 0.9493) of 1103 ± 6 kg/m3 and a mass density ([2]; 313.15 K, x1 = 0.0484) of 883 ± 6 kg/m3. It also gave a mass density ([2]; 313.15 K, x1 = 0.1731) of 994 ± 6 kg/m3, a mass density ([2]; 313.15 K, x1 = 0.2728) of 1029 ± 6 kg/m3 and a mass density ([2]; 313.15 K, x1 = 0.3353) of 1044 ± 6 kg/m3. For the same compound, the mass density ([2]; 313.15 K, x1 = 0.4286) was 1058 ± 6 kg/m3, the mass density ([2]; 313.15 K, x1 = 0.5145) was 1068 ± 6 kg/m3 and the mass density ([2]; 313.15 K, x1 = 0.6307) was 1078 ± 6 kg/m3. For the same compound, the mass density ([2]; 313.15 K, x1 = 0.7338) was 1085 ± 6 kg/m3, the mass density ([2]; 313.15 K, x1 = 0.7774) was 1087 ± 6 kg/m3 and the mass density ([2]; 313.15 K, x1 = 0.9493) was 1096 ± 6 kg/m3.

`CCCCCCCC[N+](C)(CCCCCCCC)CCCCCCCC.O=S(=O)([N-]S(=O)(=O)C(F)(F)F)C(F)(F)F` + CO showed a mass density ([2]; 298.15 K, x1 = 0.0781) of 958 ± 6 kg/m3, a mass density ([2]; 298.15 K, x1 = 0.1291) of 999 ± 6 kg/m3 and a mass density ([2]; 298.15 K, x1 = 0.2125) of 1037 ± 6 kg/m3. For the same compound, the mass density ([2]; 298.15 K, x1 = 0.35) was 1068 ± 6 kg/m3, the mass density ([2]; 298.15 K, x1 = 0.4172) was 1077 ± 6 kg/m3 and the mass density ([2]; 298.15 K, x1 = 0.5362) was 1089 ± 6 kg/m3. It also gave a mass density ([2]; 298.15 K, x1 = 0.6529) of 1097 ± 6 kg/m3, a mass density ([2]; 298.15 K, x1 = 0.7084) of 1100 ± 6 kg/m3 and a mass density ([2]; 298.15 K, x1 = 0.8522) of 1106 ± 6 kg/m3. The mass density ([2]; 298.15 K, x1 = 0.9345) was 1108 ± 6 kg/m3, the speed of sound ([2]; 298.15 K, x1 = 0.0336) was 1097.8 ± 6.4 m/s and the speed of sound ([2]; 298.15 K, x1 = 0.1291) was 1085.4 ± 6.4 m/s. For the same compound, the speed of sound ([2]; 298.15 K, x1 = 0.2125) was 1074.5 ± 6.3 m/s, the speed of sound ([2]; 298.15 K, x1 = 0.4172) was 1047.9 ± 6.3 m/s and the speed of sound ([2]; 298.15 K, x1 = 0.5362) was 1032.4 ± 6.2 m/s. For the same compound, the speed of sound ([2]; 298.15 K, x1 = 0.6611) was 1016.1 ± 6.2 m/s, the speed of sound ([2]; 298.15 K, x1 = 0.7084) was 1010 ± 6.2 m/s and the speed of sound ([2]; 298.15 K, x1 = 0.8522) was 991.2 ± 6.2 m/s. The mass density ([2]; 303.15 K, x1 = 0.0781) was 954 ± 6 kg/m3, the mass density ([2]; 303.15 K, x1 = 0.1291) was 994 ± 6 kg/m3 and the mass density ([2]; 303.15 K, x1 = 0.2125) was 1031 ± 6 kg/m3. The mass density ([2]; 303.15 K, x1 = 0.35) was 1062 ± 6 kg/m3, the mass density ([2]; 303.15 K, x1 = 0.4172) was 1071 ± 6 kg/m3 and the mass density ([2]; 303.15 K, x1 = 0.5362) was 1083 ± 6 kg/m3. For the same compound, the mass density ([2]; 303.15 K, x1 = 0.6529) was 1092 ± 6 kg/m3, the mass density ([2]; 303.15 K, x1 = 0.7084) was 1095 ± 6 kg/m3 and the mass density ([2]; 303.15 K, x1 = 0.8522) was 1102 ± 6 kg/m3. It also gave a mass density ([2]; 303.15 K, x1 = 0.9345) of 1104 ± 6 kg/m3, a mass density ([2]; 313.15 K, x1 = 0.0781) of 940 ± 6 kg/m3 and a mass density ([2]; 313.15 K, x1 = 0.1291) of 982 ± 6 kg/m3. For the same compound, the mass density ([2]; 313.15 K, x1 = 0.2125) was 1022 ± 6 kg/m3, the mass density ([2]; 313.15 K, x1 = 0.35) was 1055 ± 6 kg/m3 and the mass density ([2]; 313.15 K, x1 = 0.4172) was 1064 ± 6 kg/m3. It also gave a mass density ([2]; 313.15 K, x1 = 0.5362) of 1076 ± 6 kg/m3, a mass density ([2]; 313.15 K, x1 = 0.6529) of 1085 ± 6 kg/m3 and a mass density ([2]; 313.15 K, x1 = 0.7084) of 1088 ± 6 kg/m3. It also gave a mass density ([2]; 313.15 K, x1 = 0.8522) of 1095 ± 6 kg/m3 and a mass density ([2]; 313.15 K, x1 = 0.9345) of 1097 ± 6 kg/m3.

`CCO` [ethanol] showed a mass density ([1]; 298.15 K) of 785.5 ± 6 kg/m3, a mass density ([1]; 303.15 K) of 782 ± 6 kg/m3 and a mass density ([1]; 313.15 K) of 773.7 ± 6 kg/m3.

`CO` [methanol] gave a mass density ([1]; 298.15 K) of 786 ± 6 kg/m3, a mass density ([1]; 303.15 K) of 783.4 ± 6 kg/m3 and a mass density ([1]; 313.15 K) of 774.6 ± 6 kg/m3.

With `CCCO` [propan-1-ol] the mass density ([1]; 298.15 K) was 799.4 ± 6 kg/m3, the mass density ([1]; 303.15 K) was 796.4 ± 6 kg/m3 and the mass density ([1]; 313.15 K) was 788.6 ± 6 kg/m3.
